Test results published in PubChem BioAssay (NCI).
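These data come from cells grown in 96-well plates and exposed to compound for 48 hours at five concentrations. Abbreviation: GI50, concentration required for 50% inhibition of growth. TGI denotes the concentration required for complete inhibition of growth.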

What was measured:
Test in all cases: inhibition of tumour cell growth, NCI panel, 48 h
OVCAR-5 ovarian = tested on: OVCAR-5 ovarian
SF-295 CNS = tested on: SF-295 CNS
MALME-3M melanoma = tested on: MALME-3M melanoma
T-47D breast = tested on: T-47D breast
ACHN renal = tested on: ACHN renal
HT29 colon = tested on: HT29 colon
HCT-116 colon = tested on: HCT-116 colon
HCT-15 colon = tested on: HCT-15 colon
PC-3 prostate = tested on: PC-3 prostate
U251 CNS = tested on: U251 CNS

SMILES	GI50 (OVCAR-5 ovarian) [µM]	TGI (OVCAR-5 ovarian) [µM]	GI50 (SF-295 CNS) [µM]	TGI (SF-295 CNS) [µM]	GI50 (MALME-3M melanoma) [µM]	TGI (MALME-3M melanoma) [µM]	GI50 (T-47D breast) [µM]	TGI (T-47D breast) [µM]	GI50 (ACHN renal) [µM]	TGI (ACHN renal) [µM]	GI50 (HT29 colon) [µM]	TGI (HT29 colon) [µM]	GI50 (HCT-116 colon) [µM]	TGI (HCT-116 colon) [µM]	GI50 (HCT-15 colon) [µM]	TGI (HCT-15 colon) [µM]	GI50 (PC-3 prostate) [µM]	TGI (PC-3 prostate) [µM]	GI50 (U251 CNS) [µM]	TGI (U251 CNS) [µM]
CCCCCCCCCCCCCCCc1cc(O)ccc1N	28	> 100	3.46	> 100	> 62.1	> 100	0.132	1.76	> 100	> 100	> 100	> 100	> 100	> 100	45.8	> 100	0.463	10.6	> 80.2	> 100
O=C(Nc1cc(C(F)(F)F)ccc1F)Nc1n[nH]c2ccccc12	> 100	> 100	> 100	> 100	> 100	> 100	0.215	> 100	> 100	> 100	> 100	> 100	> 100	> 100	> 100	> 100	> 100	> 100	> 100	> 100
COC(=O)c1ccccc1NC(=O)/C(=N\NC(C)(C)C)C(C#N)c1nc(-c2ccc([N+](=O)[O-])cc2)cs1 (centres undefined)		> 100		> 100		> 100		> 100		> 100		> 100		> 100		> 100		> 100		> 100
CN1CCN(c2ccc3nc(-c4cc(C(C)(C)C)c(O)c(C(C)(C)C)c4)[nH]c3c2)CC1	3.53	12	1.83	3.66	1.55	2.95	2.86	7.61	3.06	8.62	2.1	4.41	1.85	4.06	1.71	3.49	1.92	4.17	2.92	8.59
COc1cc(OC)c2c(=O)c(O)c(-c3ccc(OC)c(OC)c3)oc2c1		> 100		38.1		> 31.6		31.4		> 100		> 100		> 100		> 100		> 100		> 100
O=C1OC(c2ccc(O)c(-c3ccccc3)c2)(c2ccc(O)c(-c3ccccc3)c2)c2c(Cl)c(Cl)c(Cl)c(Cl)c21		> 100		> 100		> 100		> 100		> 100		> 100		> 100		> 100		> 100		> 100
CC(ONC(=O)c1cc(C(F)(F)F)cc(C(F)(F)F)c1)C(=O)Nc1ccc(Cl)cc1 (centres undefined)	5.53	25.1	3.66	30.9	3.83	13.6	3.78	> 60.8	4.55	50.6	5.92	27.2	4.97	16.4	4.98	20	3.63	18.4	4.61	> 50.5
CC1(C)N=C(N)N=C(N)N1c1ccc(F)c(C(F)(F)F)c1	> 100	> 100	0.408		26.7	> 100	> 90.7	> 100	2.28	> 100	0.363	> 100	0.172	> 100	1.58	> 100	0.256	> 100	0.503	> 100
CC(=O)OC1CC2CCC1(C)C2(C)C (centres undefined)		> 100		> 100		> 100		> 100		> 100		> 100		> 100		> 100		> 100		> 100
Cn1c(COC(=O)N2CCCCC2)nc2c(N3CCOCC3)nc(-c3ccccc3)nc21	1.42	2.97	1.58	2.97	1.39	2.72	1.47	3.91	0.352	1.29	0.417	1.59	0.173	0.471	0.212	0.509	0.666	2.15	1.37	2.81
O=C1C=C(Nc2ccccc2C(=O)CC(=O)C(=O)Nc2cccc(C(F)(F)F)c2)c2ccccc2C1=O		> 100		53.7		28.7		> 100		> 100		> 100		74.3		> 100		> 100		96.5
CCC(Sc1nnc2c3ccccc3n(CC)c2n1)C(=O)Nc1ccccc1OC (centres undefined)	1.94	11.7	> 100	> 100	> 100	> 100	7.74	> 100	83.8	> 100	> 100	> 100	48.5	> 100	66.8	> 100	59.3	> 100	> 100	> 100
Cc1nn(C(=O)c2ccc(Cl)cc2)c2c1C(c1ccc([N+](=O)[O-])cc1)SC(N)=N2 (centres undefined)		> 10		> 10		> 10		> 10		> 10		> 10		> 10		> 10		> 10		> 10
CC(=O)O[C@@H]1CO[C@H]2O[C@H]3[C@@H](C(C=O)=C[C@H](O)[C@@H]4C5=C(C(C)C)CC[C@]5(C)CC[C@@]34C)[C@@]2(O)C1=O		1.12		3.98		0.347		0.378		0.281		0.471		0.27		0.687		0.368		0.55
C=C=C(C)[Si](C)(C)C		> 100		> 100		> 100		> 100		> 100		> 100		> 100		> 100		> 100		> 100
C1COC(NC(C2CC2)C2CC2)=N1		> 100		> 100		> 100		> 100		> 100		> 100		> 100		> 100		> 100		> 100
